In PubChem BioAssay (NCI) one finds TGI and GI50 data, which are given here for 11 compounds.

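How tested: cells in 96-well plates exposed to compound for 48 hours at five concentrations. GI50 marks 50% less growth. TGI: total growth inhibition.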 A value given as a limit tells only on which side of the number the result lay.

Test systems include NCI-H460 lung; SNB-19 CNS; A549 NSCLC; SF-295 CNS; NCI-H23 lung; OVCAR-8 ovarian; OVCAR-3 ovarian; A498 renal; HOP-92 NSCLC; SK-MEL-28 melanoma.
Assay in all cases: DTP human tumour cell line panel, 48 h

As to `COc1ccc(/C(Cl)=C(\C=O)c2ccc(OC)cc2)cc1`, the TGI with NCI-H460 lung, with SNB-19 CNS, with A549 NSCLC, in the assay on SF-295 CNS, in the assay with NCI-H23 lung and in the assay with OVCAR-8 ovarian was more than 100 µM throughout. For the same compound, the TGI with OVCAR-3 ovarian and with A498 renal was more than 100 µM in each case.

In the case of `COc1ccc(-c2nc3ncccn3c2-c2ccc(SC)cc2)cc1`, the TGI was 7.87 µM in the assay with NCI-H460 lung; 70.4 µM in the assay with HOP-92 NSCLC; 5.94 µM in the assay on SNB-19 CNS; more than 100 µM in the assay with SK-MEL-28 melanoma; 9.88 µM in the assay on A549 NSCLC; 3 µM in the assay with SF-295 CNS. In addition, the TGI in the assay with NCI-H23 lung is more than 100 µM; in the assay on OVCAR-8 ovarian it was more than 100 µM; in the assay on OVCAR-3 ovarian, 2.09 µM.

Take `CCOC(=O)c1c2c(n(Cc3ccccc3)c1C)C(=O)C(=O)c1ccccc1-2`: the TGI was determined as 1.5 µM in the assay on NCI-H460 lung; 3.17 µM with HOP-92 NSCLC; 0.601 µM with SK-MEL-28 melanoma; 1.35 µM in the assay on A549 NSCLC; 0.984 µM in the assay on SF-295 CNS; 1.07 µM in the assay on NCI-H23 lung. For the same compound, the TGI was determined as 1.07 µM with OVCAR-8 ovarian, 0.167 µM in the assay on OVCAR-3 ovarian and 5.67 µM in the assay with A498 renal. In addition, the GI50 in the assay with A498 renal is 2.84 µM.

On to `FC(F)(F)c1ccc2c(c1)nc(-c1ccc(Cl)cc1)n2CC1CCCN2CCCCC12` (stereo unspecified), for which the total growth inhibition concentration (TGI) with NCI-H460 lung came out at 31.4 µM; in the assay on HOP-92 NSCLC, 29.1 µM; in the assay with SNB-19 CNS it was 31.2 µM; with SK-MEL-28 melanoma, 30.8 µM; with A549 NSCLC, 29.5 µM; in the assay on SF-295 CNS it was 31.7 µM. Besides, the results for the TGI in the assay with OVCAR-8 ovarian, in the assay with OVCAR-3 ovarian and in the assay on A498 renal were 30.1 µM, 33.6 µM and 27.5 µM, respectively.

With `CCC(=O)O[C@H]1CC[C@H]2[C@@H]3CCC4=C/C(=N/OC(=O)c5cccc6cc7ccccc7nc56)CC[C@]4(C)[C@H]3CC[C@]12C`, the TGI with NCI-H460 lung, with HOP-92 NSCLC, with SNB-19 CNS, with SK-MEL-28 melanoma, with A549 NSCLC and with NCI-H23 lung was more than 100 µM throughout. The TGI in the assay with OVCAR-8 ovarian, with OVCAR-3 ovarian and in the assay on A498 renal was more than 100 µM in each case.

As for `N=C1C(=N)c2ccccc2-c2ccccc21.N=C1C(=N)c2ccccc2-c2ccccc21.N=C1C(=N)c2ccccc2-c2ccccc21.[Cl-].[Ru+2]`, the TGI is 6.29 µM with NCI-H460 lung; 3.09 µM with HOP-92 NSCLC; 6.35 µM in the assay on SNB-19 CNS; 3.79 µM in the assay with SK-MEL-28 melanoma; more than 27.9 µM in the assay with A549 NSCLC; 3.23 µM with SF-295 CNS. Moreover, the TGI in the assay with NCI-H23 lung is 4.93 µM; in the assay on OVCAR-8 ovarian, 3.14 µM; with OVCAR-3 ovarian it was 3.08 µM. Also, in the assay with HOP-92 NSCLC, the GI50 was 1.6 µM.

On to `Cc1cc2c(cc1C(=O)c1ccc(N)cc1)OCO2`, for which the TGI with NCI-H460 lung is more than 100 µM; in the assay with HOP-92 NSCLC, more than 100 µM; in the assay with SNB-19 CNS it was more than 100 µM; with A549 NSCLC it was more than 100 µM; with SF-295 CNS it was 86 µM; in the assay with NCI-H23 lung, more than 100 µM. Besides, the concentration for total growth inhibition (TGI) with OVCAR-8 ovarian is more than 100 µM; in the assay on OVCAR-3 ovarian, 0.966 µM.

Take `CC(C)(C)[Si](C)(C)Oc1ccc(C2CNC(=O)C23CCC(=O)N3Cc2ccccc2)cc1` (stereo unspecified): the TGI in the assay with NCI-H460 lung is 20.8 µM; in the assay on HOP-92 NSCLC, 34.6 µM; in the assay on SNB-19 CNS, 29.5 µM; in the assay on A549 NSCLC it was 33.2 µM; with SF-295 CNS, 30.6 µM; with NCI-H23 lung it was 25.5 µM. For the same compound, the figures for the TGI in the assay with OVCAR-8 ovarian, in the assay with OVCAR-3 ovarian and in the assay on A498 renal were 28.8 µM, 33 µM and 25.1 µM, respectively.

As for `C[C@H]1C(=O)O[C@@H]2CCN3CC=C(COC(=O)[C@](C)(O)[C@@]1(C)O)[C@H]23`, the total growth inhibition concentration (TGI) in the assay with HOP-92 NSCLC, in the assay with SNB-19 CNS, with SK-MEL-28 melanoma, in the assay on A549 NSCLC, with SF-295 CNS and in the assay with NCI-H23 lung was more than 100 µM in each case. Also, the concentration for total growth inhibition (TGI) with OVCAR-8 ovarian, in the assay on OVCAR-3 ovarian and in the assay on A498 renal was more than 100 µM each time.

In the case of `NCCCn1c2c(c3ccc([N+](=O)[O-])cc3c1=O)C(=O)c1ccccc1-2`, the concentration for 50% growth inhibition (GI50) with NCI-H460 lung was 0.00887 µM; in the assay with HOP-92 NSCLC it was 0.34 µM; in the assay with SNB-19 CNS, 0.0721 µM; in the assay on SK-MEL-28 melanoma, 0.497 µM; with A549 NSCLC it was 0.0233 µM; in the assay with NCI-H23 lung, 0.078 µM. The GI50 in the assay on OVCAR-8 ovarian was 0.114 µM; with OVCAR-3 ovarian, 0.0966 µM; in the assay with A498 renal, 0.277 µM. The TGI in the assay with NCI-H460 lung is more than 50 µM; in the assay with HOP-92 NSCLC, 1.72 µM; with SNB-19 CNS it was 7.05 µM; in the assay with NCI-H23 lung it was 2.42 µM; in the assay with OVCAR-8 ovarian, 0.77 µM; in the assay with OVCAR-3 ovarian, 0.525 µM. The compound further yielded a TGI in the assay with A498 renal of 1.45 µM.

For the compound `O=C(Nc1ccc([N+](=O)[O-])cc1[N+](=O)[O-])C(=O)C(C(=O)c1ccc2ccccc2c1)C1OC(=O)c2ccccc21` (stereo unspecified), the TGI was 28.9 µM with NCI-H460 lung; 55.6 µM in the assay on HOP-92 NSCLC; 33 µM in the assay with SNB-19 CNS; 48 µM in the assay with SK-MEL-28 melanoma; 61.7 µM with A549 NSCLC; 55.1 µM with SF-295 CNS. For the same compound, the TGI with NCI-H23 lung is 26 µM; in the assay with OVCAR-8 ovarian it was 21.6 µM; with A498 renal it was 52.7 µM.

As a reminder, the TGI is the concentration giving total growth inhibition. High values mean less potent growth arrest, low ones more potent growth arrest. What is called GI50 is the concentration giving 50% growth inhibition.
